Experimental data published in the METLIN SMRT retention time set (Domingo-Almenara et al. 2019).

Experiment: gradient 5% acetonitrile 3 min, to 50% in 2 min, to 85% in 15 min, held 3 min, 100 µL/min
Details: column: Zorbax Extend-C18 2.1 x 50 mm; eluents: water / acetonitrile, 0.1% formic acid
How it was run: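 Retention time was recorded from adduct peaks, which were picked computationally and each inspected manually. Pure standards ran in mixtures of ~100 molecules on HPLC coupled to a quadrupole time-of-flight mass spectrometer, in positive and negative ionization mode, through a Zorbax Extend-C18 column (2.1 × 50 mm, 1.8 μm) at 100 μL/min. Eluents were water and acetonitrile, each with 0.1% formic acid.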

SMILES | RP-LC retention time [s]
CCn1cnc2ccc(-c3noc(-c4ccc(Cl)cc4)n3)cc21 | 863
Cc1nc(-c2noc(-c3ccccc3)n2)cn1CC(=O)NCc1cccc(Cl)c1 | 866
NC(=O)C1CCN(C(=O)Cc2cc(-c3ccco3)on2)CC1 | 580
Cc1nc(NC(=O)CNC(=O)c2c[nH]c3ccccc23)sc1C(=O)N(C)C | 614
O=C(Nc1ccc(F)c(Cl)c1)c1cc(=O)c(OCc2ccc(F)cc2)co1 | 899
O=C(Nc1ccc2c(c1)OCCO2)N1CCC(Cc2nncn2-c2ccccc2)CC1 | 706
Cc1nc2cc(N3CC(C(=O)N4CCN(c5ccccc5)CC4)CC3=O)ccc2o1 (stereo unspecified) | 727
CCc1ccc(NS(=O)(=O)c2cc(-c3[nH]ncc3C(=O)N(C)C)oc2C)cc1 | 704
Cc1cc(C(=O)NCCN2CCCCC2)c2cc(Br)ccc2n1 | 567
Cc1ccc(CNS(=O)(=O)c2cc3n(c2)CCCNC3=O)cc1 | 658
COc1cccc(Cn2nnc(C(=O)O)c2-c2cccc(OC)c2)c1 | 782
COc1cccc(Cn2cnc3c(-c4cccc(F)c4)csc3c2=O)c1 | 1050
COc1cccc(CNC(=O)C(=O)NCC2CCN(C(=O)NC(C)(C)C)CC2)c1 | 719
CCc1ccc(Oc2cc(N3CCC(C(=O)NCCC4=CCCCC4)CC3)ncn2)cc1 | 1150
O=C(Cc1ccc([N+](=O)[O-])cc1)NCc1nnnn1-c1ccc(F)cc1 | 701
O=C(NC1CCCCC1)C1CCCN(C(=O)c2cc(-c3cccnc3)n[nH]2)C1 (stereo unspecified) | 622
Cc1cccc(C)c1NC(=O)Cn1cnc2nc(N3CCC(C(=O)NC4CC4)CC3)sc2c1=O | 693
CCN(C(=O)C1CCCN1S(=O)(=O)c1cc2c(cc1C)NC(=O)CO2)c1cccc(C)c1 (stereo unspecified) | 818
Cc1cccc(OCC(=O)N2CCC3(C2)C(=O)N(C)c2ccccc23)c1 (stereo unspecified) | 825
CCOC(=O)c1cccc(NC(=O)CCc2ccc3nc(CC)[nH]c3c2)c1 | 638
O=C(Nc1ccc2c(c1)OCCO2)N1CCN(Cc2nc3cccnc3n2-c2ccccc2)CC1 | 635
CCOc1ccc(S(=O)(=O)N2CCCC(C(=O)NC(C)C)C2)cc1 (stereo unspecified) | 825

SMILES | RP-LC retention time [s]
CC(C)CN1CCN(C(=O)CN2CCN(Cc3ccccc3)C2=O)CC1 | 579
CCC(C)(C)NS(=O)(=O)c1ccc(-c2c(C)noc2C)cc1 | 939
N#Cc1cccc(N2C=C(C(=O)N3CCCC3)S(=O)(=O)c3ccccc32)c1 | 720
Cn1c(=O)c(=O)n(C)c2cc(N3CCOCC3)c(NC(=O)c3ccco3)cc21 | 663
COc1ccc(CNC(=O)NCC(c2ccccc2Cl)N(C)C)cc1 (stereo unspecified) | 577
CSc1cccc(NC(=O)Cn2cnc3nc(N4CCC(C(=O)NC5CC5)CC4)sc3c2=O)c1 | 696
COc1ccc(-c2cn3c(CC(=O)Nc4nccs4)csc3n2)cc1OC | 653
Cc1cccc(NC(=O)N2CCC(N3CCN(Cc4ccccc4)C(=O)C3=O)CC2)c1 | 744
Cc1cc(C(=O)N2CCCCCC2c2nnc(C)o2)c(C)o1 (stereo unspecified) | 755
O=C1NC(C(=O)NCC2CCCCC2)Cn2cccc21 (stereo unspecified) | 681
O=C1CCN(C(=O)C2CCN(C(=O)C3CC3)CC2)CCCCCCN1 | 598
Cc1cn(C2CC(O)C(CO)O2)c(=O)n(Cc2ccccc2)c1=O (stereo unspecified) | 697
O=C(N[C@@H](Cc1c[nH]c2ccccc12)C(=O)O)c1cc2ccccc2o1 | 769
Cc1nc(N2CCOCC2)c2c(C(=O)Nc3cccc(C(F)(F)F)c3)c(C)oc2n1 | 955
Cc1ccccc1CNC(=O)C1(C)CCCN(C(=O)Nc2cccc(C)c2C)C1 (stereo unspecified) | 977
CCCC(NC(=O)c1cc(OC)cc(OC)c1)C(=O)Nc1nc2ccccc2[nH]1 (stereo unspecified) | 719
CC(C)CC(=O)N1CCCn2nc(-c3ccncc3)cc2C1 | 543
O=C1COc2ccc(Cl)cc2N1Cc1nc(-c2ccc(-c3csc(C4CC4)n3)cc2)no1 | 1310
CN(CCc1noc(-c2ccc(C(=O)N3CCCC3)cc2)n1)C(=O)COc1ccc(Cl)cc1 | 808
COCCCN1CN=C(Nc2nc(C)c3cc(C)ccc3n2)NC1 | 555
Cn1nc(C(=O)N2C[C@@H](Oc3ccccc3)C[C@H]2C(=O)NC2CC2)c2ccccc21 | 802
Cc1nnc2c(=O)n(CC(=O)NCc3ccccc3)c3cccnc3n12 | 654

SMILES | RP-LC retention time [s]
CCc1ccc(NC(=O)Cc2nc(C)c(C(=O)NCC(C)C)s2)cc1 | 868
O=C(c1cc2c(s1)CCC(C(=O)N1CCOCC1)C2)N1CCCCC1 (stereo unspecified) | 701
C=CCNC(=O)NC1CCN(C2=NS(=O)(=O)C(c3ccc(C)cc3)=C2C)CC1 | 736
COCc1nc2cccnc2n1C1CCN(C(=O)Nc2cc(OC)ccc2OC)CC1 | 696
O=C(Nc1ccc(F)cc1)N1CCCCCC1 | 738
Cc1oc2ccn(Cc3cccc(F)c3)c(=O)c2c1C(=O)NC1CCCCCC1 | 1270
CCOC(=O)C1CCC(CNC(=O)Nc2cc3c(cc2N2CCCCC2)n(C)c(=O)n3C)CC1 (stereo unspecified) | 689
Cc1cccn2c(Nc3ccc4c(c3)OCCO4)c(-c3ccc(N4CCOCC4)cc3)nc12 | 683
CC(C)c1noc(-c2ccnc(-n3cnc(C(=O)N4CCOCC4)c3)c2)n1 | 748
CCC(=O)N1CCc2c(C(=O)N3CCN(c4ccccn4)CC3)cccc21 | 589
Cc1nn(CC(=O)NC2CC2)c(=O)c2nc(-c3ccccc3)sc12 | 711
CCOC(=O)c1cccc(NS(=O)(=O)c2cc(-c3c(C)noc3NC(C)=O)ccc2OC)c1 | 781
Cc1ccc(-c2nnc(-c3cccnc3N3CCC4(CC3)OCCO4)o2)cc1 | 962
CCCCc1ccc(NC(=O)Cn2cnc3nc(N4CCCC(C(=O)NC)C4)sc3c2=O)cc1 (stereo unspecified) | 759
COC(=O)C1=CN(c2ccc(C(=O)OC)cc2)c2ccccc2S1(=O)=O | 747
CCOc1ccccc1CNC(=O)c1nc(N2CCOCC2)c2ccccc2n1 | 738
Cc1ccc2c(=O)c(C(=O)N3CCCC3)cn(CC(=O)Nc3ccccc3Cl)c2n1 | 704
O=C(C1=NN(Cc2ccc(F)cc2)c2cc(Cl)ccc2S1(=O)=O)N1CCOCC1 | 899
COc1cccc(CNc2c(-c3nc(C(C)C)no3)cnc3nc(C)ccc23)c1 | 790
O=C(NCCC1=CCCCC1)C1CCCN(c2cnc3nccnc3c2)C1 (stereo unspecified) | 766
CCN(CC)C(=O)c1cc2c(s1)CCC(C(=O)Nc1ccc3c(c1)OCCO3)C2 (stereo unspecified) | 775
Cc1ccc(C(=O)N2CCN(S(=O)(=O)c3cc4c5c(c3)CCC(=O)N5CCC4)CC2)cc1C | 850
